{
  "source": "patent US20030096957A1",
  "about": "“AFX (zeta) transcription factor splice form” (priority 2001, published 2003)",
  "assay_type_in_all_cases": "cell-based, human",
  "key": {"[1]": {"system": "AFXζ-induced PEPCK p-SEAP activity", "assay": "PEPCK p-SEAP reporter assay in HepG2 cells transfected with AFXζ", "procedure": "(§1) FIG. 4. Effect of insulin on the transcriptional activity of AFXζ. HepG2 cells were transiently transfected with pcDNA6/His-AFXζ and PEPCK p-SEAP (A) or PEPCK IRS-SEAP (B). Twenty-four hours after transfection, cells were treated with insulin at the indicated concentration in fresh media and incubated for another 15-18 hours. SEAP and β-galactosidase activities were measured. The relative activation levels were standardized by comparison to the reporter activity from transfected cells without insulin treatment (A) or untreated cells transfected with the reporter alone (B). All values represent the means±S.D. of 3 independent experiments.\nFIG. 5. Effect of bpV (peroxovanadate) and PKB on the transcriptional activity of AFXζ. A. HepG2 cells were transiently transfected with PEPCK p-SEAP and pcDNA6/His-AFXζ. Twenty-four hours after transfection, cells were treated with bpV at the indicated concentration in fresh media and were incubated for another 15-18 hours. The relative activation level was standardized by comparison to the reporter activity from transfection without bpV treatment. B. HepG2 cells were transiently cotransfected with the reporter constructs and pcDNA6/His-AFXζ with (filled bars) or without (open bars) the plasmid encoding myr-Akt1, which constitutively expresses active PKB. Forty-eight hours after transfection, SEAP and β-galactosidase activities were measured. The relative activation levels were standardized comparing with the activity from corresponding transfection with reporter alone. All values represent the means±S.D. of 3 independent experiments.\n(§2) FIG. 6. Effect of AICAR on the transcriptional activity of AFXζ. A. HepG2 cells were transiently transfected with AFXζ and PEPCK p-SEAP (A) or PEPCK IRS-SEAP (B). Twenty-four hours after transfection, cells were treated with AICAR at indicated concentration in fresh media and incubated for another 15-18 hours. SEAP and β-galactosidase activities were measured. The relative activation levels were standardized by comparison to the activity from cells without AICAR treatment (A) or untreated cells transfected with the reporter alone (B). All values represent the means±S.D. of 3 independent experiments.\nDouble-stranded DNA fragments containing each of the IRS elements from the promoters of PEPCK, IGFBP- 1 and G6Pase were cloned into the Nhe I/Bgl II site of pSEAP2-promoter vector (Clontech). Dissected fragments of the PEPCK and IGFBP-1 IRS elements, referred as PEPCK-a, PEPCK-b and IGFBP-1a, IGFBP-1b, respectively, were cloned into the same site of pSEAP2-promoter. In addition, a 501 bp fragment corresponding to the human PEPCK 5′ regulatory sequence (−458 to +43 relative to the transcription start site, abbreviated as PEPCK p) was cloned into the Bgl II/EcoR I site of the same vector. […]"}, "[2]": {"system": "AFXζ-induced PEPCK IRS-SEAP activity", "assay": "PEPCK IRS-SEAP reporter assay in HepG2 cells transfected with AFXζ", "procedure": "as §1, §2\nDouble-stranded DNA fragments containing each of the IRS elements from the promoters of PEPCK, IGFBP- 1 and G6Pase were cloned into the Nhe I/Bgl II site of pSEAP2-promoter vector (Clontech). Dissected fragments of the PEPCK and IGFBP-1 IRS elements, referred as PEPCK-a, PEPCK-b and IGFBP-1a, IGFBP-1b, respectively, were cloned into the same site of pSEAP2-promoter. […]\nThe human hepatoma cell line HepG2 was cultured in Dulbecco's Modified Eagle's Medium (DMEM) with 10% Fetal Bovine Serum (FBS, Life Technologies). […] Secreted alkaline phosphatase (SEAP) and β-galactosidase activities were measured using Phospha-Light and Galacto-Star systems (Tropix Inc., Bedford, Mass.), respectively."}, "HepG2 cells": {"system": "HepG2 cells", "procedure": "The human hepatoma cell line HepG2 was cultured in Dulbecco's Modified Eagle's Medium (DMEM) with 10% Fetal Bovine Serum (FBS, Life Technologies). Transient transfection experiments were performed in DMEM supplemented with 10% dialyzed FBS in 24-well plates. A DNA construct (0.2 μg unless otherwise specified) corresponding to IRS-SEAP, pcDNA6/His-AFXα or -AFXζ and CMV-β was added. Each set of reporter assay includes a transfection in which no AFX expression construct was added. In experiments where PKB effect was tested, 0.2 μg myr-Aktl in pUSEamp(+) (Upstate Biotechnology, Lake Placid, N.Y.), which constitutively expresses activated PKB, was included. Lipofectamine 2000 reagent (Life Technologies) was used for DNA transfection following the manufacturer's instruction. For experiment in which the cells were treated with soluble agents, the medium was changed 24 hours after the transfection. Cells were then treated with appropriate concentrations of bpV [potassium bisperoxo(1,1 0-phenanthroline) oxovanadate(V), Alexis Biochemicals, San Diego, Calif.], porcine insulin, or AICAR (5-aminoimidazole-4-carboxamide-1-β-D-ribofuranoside, Sigma, St. Louis, Mo.) in fresh media for another 15-18 hours. Secreted alkaline phosphatase (SEAP) and β-galactosidase activities were measured using Phospha-Light and Galacto-Star systems (Tropix Inc., Bedford, Mass.), respectively."}},
  "data": [
    {"molecule": "NC(=O)c1ncn([C@@H]2O[C@H](CO)[C@@H](O)[C@H]2O)c1N", "note": "[AICAR, 5-aminoimidazole-4-carboxamide-1-β-D-ribofuranoside]", "values": [
      {"measurement": "transcriptional activity of AFXζ on the PEPCK promoter, % of untreated cells", "setting": "[1]; HepG2, 200 μM AICAR", "result": 48, "unit": "%"},
      {"measurement": "induced PEPCK IRS-SEAP activity, % of the stimulation ascribed to transfected AFXζ", "setting": "[2]; HepG2, 200 μM AICAR", "result": 20, "unit": "%"}
    ]},
    {"molecule": "O.O.O.OO.OO.[K+].[OH-].[V].c1cnc2c(c1)ccc1cccnc12", "note": "[bpV, potassium bisperoxo(1,1 0-phenanthroline) oxovanadate(V)]", "values": [
      {"measurement": "concentration with toxicity in HepG2 cells (reduction of control galactosidase activity)", "setting": "HepG2 cells", "result": "above 5 μM"},
      {"measurement": "AFXζ-induced PEPCK p-SEAP reporter activity", "setting": "[1]; HepG2, 5 μM bpV", "result": "below the basal level"},
      {"measurement": "lowest concentration repressing AFXζ-induced PEPCK p-SEAP reporter gene activity", "setting": "[1]; HepG2, 15-18 hours", "result": 0.5, "unit": "µM"}
    ]},
    {"molecule": "insulin: porcine insulin used to treat transfected HepG2 cells", "values": [
      {"measurement": "induced PEPCK p-SEAP activity compared with the untreated cells", "setting": "[1]; HepG2, increasing concentrations of insulin, 15-18 hours", "result": 50, "unit": "%"},
      {"measurement": "AFXζ-induced PEPCK IRS-SEAP reporter activity", "setting": "[2]; HepG2, 200 nM insulin", "result": "to the basal level"},
      {"measurement": "PEPCK IRS-SEAP activity", "setting": "[2]; HepG2 cells in which exogenous AFXζ had not been introduced", "result": "repressed"}
    ]}
  ]
}
